Converted amounts (≈) assume the structure as drawn.

One data set concerns HEK293T cells. The experiment in a line: Cell viability MTS assay. Conditions: 100 µM; 72 h; vs DMSO control. The class given is cell-based, human. On the procedure:
(§1) Cell viability was assessed using CellTiter® 96 Aqueous One Solution Cell Proliferation Assay (Promega, G3582) following the manufacturer’s protocol. The assay is based on the reduction of [3-(4,5-dimethylthiazol-2-yl)-5-(3-carboxymethoxyphenyl)-2-(4-sulfophenyl)-2 H-tetrazolium] (MTS) and phenazine ethosulfate into formazan. Compounds 2 and 4b, GM6001 (Merck, 364206) (10–100 µM), or DMSO control were incubated in 48-well Nunc™ plates (Thermo Fisher Scientific,150687) with HEK293T cells, human non-OA chondrocytes, porcine cartilage explants, or human OA cartilage explants for 72 h. At least 3 independent experiments were carried out with 3 technical replicates each. For experiments involving human samples, independent experiments were carried out on 3 different donors. Absorbance at 490 nm was measured on a SpectraMax i3x Multi-Mode Platform (Molecular Devices). Cell viability was normalized to DMSO controls.
In general terms: Tetrazolium dyes change colour on reduction, which living cells bring about.

A further data set has as its target T1, ADAMTS5 (Homo sapiens, UniProt Q9UNA0).
T1 construct: Human recombinant full-length FLAG-tagged ADAMTS4 and ADAMTS5 were expressed in HEK293T cells; FLAG; made in house; host or cells: HEK293T cells
T1 sequence (Q9UNA0 262-930): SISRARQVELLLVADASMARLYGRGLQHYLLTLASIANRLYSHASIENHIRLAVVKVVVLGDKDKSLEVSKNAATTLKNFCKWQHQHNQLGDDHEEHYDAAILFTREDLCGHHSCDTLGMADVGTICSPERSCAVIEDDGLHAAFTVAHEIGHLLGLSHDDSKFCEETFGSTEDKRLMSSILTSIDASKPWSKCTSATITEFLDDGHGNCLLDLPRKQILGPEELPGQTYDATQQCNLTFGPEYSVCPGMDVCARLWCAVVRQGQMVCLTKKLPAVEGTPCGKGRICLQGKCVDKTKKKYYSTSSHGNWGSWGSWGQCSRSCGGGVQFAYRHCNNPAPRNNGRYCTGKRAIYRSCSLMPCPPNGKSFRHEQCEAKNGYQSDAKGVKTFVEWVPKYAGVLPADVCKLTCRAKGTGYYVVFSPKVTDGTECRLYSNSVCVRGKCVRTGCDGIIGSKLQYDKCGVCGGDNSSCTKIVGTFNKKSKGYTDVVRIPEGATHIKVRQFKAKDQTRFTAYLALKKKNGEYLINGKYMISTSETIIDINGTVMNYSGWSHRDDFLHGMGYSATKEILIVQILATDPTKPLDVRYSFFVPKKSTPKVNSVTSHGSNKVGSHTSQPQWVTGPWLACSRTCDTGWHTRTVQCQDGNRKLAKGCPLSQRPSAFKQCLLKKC
Description: Versicanase assay (V1-5GAG, versikine sandwich ELISA). The class given is biochemical. On the procedure:
Human recombinant full-length FLAG-tagged ADAMTS4 and ADAMTS5 were expressed in HEK293T cells (Thermo Fisher Scientific) and purified by anti-FLAG immunoaffinity chromatography as before. Concentrations of active proteases were determined by active-site titrations with known concentrations of TIMP-3 (Bio-Techne, 973-TM-010), using QF peptides as substrates. V1-5GAG, a truncated version of versican V1 isoform comprising residues 21–694 and containing a C-terminal 6x His tag[67], was expressed in HE293T cells and purified by immobilized metal affinity chromatography as before.
Compounds 1–4 (100 µM) or DMSO were incubated with ADAMTS4 (5 nM) or ADAMTS5 (0.4 nM) for 2 h at 37 °C, before addition of V1-5GAG (50 nM). At each time point, reactions were stopped by addition of ethylenediaminetetraacetic acid and ADAMTS-generated versican fragments (versikine) quantified by sandwich ELISA as before[29],[30],[38] using anti-DPEAAE neoepitope antibody (Life Technologies, PA1-1748 A, 5 µg/ml) and polyclonal anti-versican antibody (Abcam, ab171887, 3 µg/ml). For each reaction, the amount of versikine generated was derived from a standard curve (0–1.56 nM) of V1-5GAG completely digested with ADAMTS5. Initial velocities were calculated from the concentration of versikine generated as a function of reaction time. Percent of inhibition was calculated from the DMSO control reactions. IC50 values were determined using the formula: vi/v0 = 1/(1 + [I]/IC50) where vi is the initial velocity of substrate cleavage in the presence of the inhibitor at concentration [I] and v0 is the initial velocity in the presence of an equal concentration (v/v) of DMSO.
(In general: In an ELISA, binding on a coated surface is turned into a signal by an enzyme label.)

Data set [1] in a line: Solubility determination in PBS by UV-Vis absorbance at 284 nm. The class given is physicochemical. Conditions: PBS buffer, aqueous buffer, kinetic from dmso stock, pH 7.4, room temperature, read-out: upper solubility limit. Here is the method:
The solubility of compounds 4b and 2 was assessed in PBS at pH 7.4 and room temperature. Stock solutions of the compounds (10 mM in DMSO) were diluted in PBS buffer to achieve final concentrations between 1,000 µM − 12.5 µM. Two-hundred microliters of the proper compound solutions in PBS buffer were added in a 96-well plate, and the absorbance was measured at 284 nm using a SPECTROstar Nano UV-Vis spectrophotometer (220–1,000 nm, Ortenberg, Germany). Analyses were performed in triplicate, and the mean value was calculated for each sample.

In data set [2] the test system is porcine cartilage explants. Description: Cell viability MTS assay. The note with it: 100 µM; 72 h; vs DMSO control. The class given is cell-based, pig. Here is the method: Porcine articular cartilage from the joints of 3–9 month old pigs was supplied by a local abattoir within 2 h of slaughter and dissected into small pieces approximately 3 mm long and 3–4 mm wide. Each piece weighed roughly 10 mg. After dissection, the cartilage was allowed to acclimatize for 24 h at 37 °C under 5% CO2 in Dulbecco’s Modified Eagle Medium (DMEM) containing 100 U/ml penicillin, 100 µg/ml streptomycin, 10% fetal bovine serum (FBS).
as §1

For `CCC(C)N(Cc1cn(CCCO[C@@H]2O[C@H](CO)[C@@H](O[C@@H]3O[C@H](CO)[C@H](O)[C@H](O)[C@H]3O)[C@H](O)[C@H]2NC(C)=O)nn1)S(=O)(=O)c1ccc(-c2ccccc2)cc1` (stereo partly drawn) [compound 2, N-((2R,3R,4R,5 S,6R)-2-(3-(4-((N-(sec-butyl)-[1,1’-biphenyl]-4-sulfonamido)methyl)-1H-1,2,3-triazol-1-yl)propoxy)-4-hydroxy-6-(hydroxymethyl)-5-(((2 S,3R,4 S,5R,6R)-3,4,5-trihydroxy-6-(hydroxymethyl)tetrahydro-2 H-pyran-2-yl)oxy)tetrahydro-2 H-pyran-3-yl)acetamide], the “inhibition of cell viability” value with HEK293T cells was “Neither 2, nor the broad-spectrum zinc-chelating metalloproteinase inhibitor GM6001[40] had an effect on cell viability”. This molecule also had an inhibition at 100 µM against ADAMTS5 (100 µM, compared to DMSO control) of 76%. The “IC50 of compound 2 relative to parent compound 4b (higher)” value at ADAMTS5 (ADAMTS5 versicanase activity) is given as ~ 4 fold. Moreover, at ADAMTS5 (read-out: IC50 for inhibition of ADAMTS5 versicanase activity), the IC50 stood at 35 ± 4.8 µM. Further, in data set [1], the solubility is 300 µM (≈ 238 µg/mL). In addition, the “decrease of cell viability” value in data set [2] is on record as “did not exhibit cytotoxicity”.

One may read the inhibition as how much of the control response was suppressed. Higher therefore signals a response far below the control. In general, IC50 refers to the concentration that inhibits the measured activity by half. In general, solubility refers to the concentration that dissolves in the medium under given conditions.

The values are drawn from PMC12769565, “Design, synthesis and biological activity of glycoconjugated ADAMTS5 exosite inhibitors: applications in osteoarthritis and ovarian cancer models” (Scientific Reports, 2025).
